Data set [1] has as its target T1, TGR (Schistosoma mansoni, UniProt Q962Y6, X597U).
T1 construct: made in house
The data set is described as follows: NADPH consumption (oxidase activity). The data set is classed as biochemical, S. mansoni. The following applies: replicates. On the procedure: TRi-1, Stattic (both at 50 µM) and AF (20 µM) were incubated with 1 ml of 500 nM TGR and 100 µM NADPH in TGR reaction buffer for 30 min. The samples were desalted using a Zeba spin desalting column (Thermo Fisher Scientific) and 100 µl of the desalted sample was combined with 100 µl of 100 µM NADPH. NADPH consumption was monitored at 340 nm in triplicate. Compounds 1, 4, 6, and 7 (50 µM) were tested in the same fashion without the desalting step and with a first incubation step of 30 min for 6 and 7 and 2 h for 1 and 4.

Data set [2] has as its target T1, TGR. The data set is described as follows: Superoxide production (pyrogallol red). The data set is classed as biochemical, S. mansoni. As to conditions: replicates. On the procedure:
The production of superoxide by TGR was determined by monitoring reaction of superoxide with pyrogallol red[80]. Briefly, a 1 ml reaction mix (500 nM TGR, 100 µM NADPH, and 20–50 µM inhibitor) was incubated at room temperature for 30 min for fast inhibitors, or 2 h for slow inhibitors. For irreversible inhibitor controls TRi-1 (synthesized in house as reported[45]), Stattic (Cayman Chemical), and AF (Cayman Chemical), the samples were desalted using a Zeba spin desalting column. 100 µL of sample was combined with pyrogallol buffer with and without superoxide dismutase (SOD) (50 µM pyrogallol red, 300 µM NADPH; ± 10 units SOD). The reaction was measured at A340 and A540 simultaneously for 2 h.

The test system of data set [3] is S. mansoni juvenile worms (21 days). The data set is described as follows: Schistosomicidal activity ex vivo, juvenile worms (21 days). The data set is classed as cell-based. The following applies: for % viability / viability at 5 µM / viability at 15 µM / viability at 30 µM: 23 day S. mansoni worms, 48 HR; for LD50 ex vivo S. mansoni 21 days: juvenile worms, 48 h exposure; for viability at 5 µM / viability at 15 µM / viability at 30 µM: Schistosoma mansoni; for viability at 15 µM: Conc. 15 µM; for viability at 30 µM: Conc. 30 µM. The protocol: (§1) Three-week old, female Swiss-Webster mice obtained from the Charles River were housed in the Comparative Research Center of Rush University Medical Center. Mice were infected by percutaneous tail exposure to about 200 S. mansoni or 50 S. japonicum cercaria for adult worms and about 1000 cercaria for juvenile S. mansoni worms through natural transdermal penetration of the cercariae for 1 h[81].
(§2) DMSO formulated compounds were diluted with phenol red free M199 medium or RPMI medium for NTS or juvenile and adult worms, respectively, at <1% DMSO final concentrations. NTS, juvenile and adult worms from overnight cultures were tested against compounds in triplicate. Controls were treated with DMSO alone or 5 µM AF as a positive control in appropriate medium. […] Schistosome viabilities in the presence of the compounds were assessed using this formula: % Viability = Averages of Test / Averages of DMSO Control x 100.

Data set [4] concerns TGR in newly transformed schistosomula (NTS). Put plainly: TGR inhibition in NTS with TRFS-Green fluorescent probe. The data set is classed as cell-based, S. mansoni. The following applies: for TRFS-Green fluorescence in NTS: 2 h with inhibitor (30 µM; AF 3 µM) then TRFS-Green 10 µM; for production of green fluorescent dye in TRFS-green assay: compound at 5 µM. The protocol:
TGR inhibition in NTS was assessed using a fluorescent probe TRFS-Green (Medchemexpress)[43]. NTS prepared as previously described and cultured in M199 supplemented with 5.5 mM D-glucose, penicillin-streptomycin and 5% heat inactivated fetal bovine serum were incubated at 37 °C in a clear bottom flat well plate in a 5% CO2 incubator overnight. […] NTS were further treated with TRFS-Green (10 µM) for additional 4 h and rinsed with M199 medium to remove residual TRFS-Green. Fluorescence images were obtained using Keyence BZ-X800. The quantification of fluorescence intensity upon the uptake of TRFS-Green by NTS was performed by a fluorescent microplate imager (BioTek Cytation3) (excitation, 438 nm; emission, 538 nm) hourly for 5 h and after 24 h.

Data set [5] has as its system S. japonicum adult worms. Put plainly: Schistosomicidal activity ex vivo, S. japonicum adult worms. It counts as cell-based. As to conditions: for LD50 ex vivo S. japonicum adult: 48 h exposure; for viability at 5 µM / viability at 15 µM / viability at 30 µM: Schistosoma japonicum, S. japonicum adult worms, 48 hr; for viability at 5 µM: Conc. 5 µM; for viability at 15 µM: Conc. 15 µM; for viability at 30 µM: Conc. 30 µM. On the procedure: as §1, §2

Data set [6] can be described thus: Cytotoxicity in mammalian cells (Cell Titer Glo). The data set is classed as cell-based. The following applies: African green monkey, Vero cells. The protocol:
Following overnight incubation, formulated DMSO-compound stock solutions were diluted with DMEM at <1% DMSO final concentrations. […] Vero cells treated similarly with different concentrations of PZQ, MZM and AF (Cayman Chemicals) were used as positive controls.

[7] abbreviates: second of the two columns per substance (condition not given).
[8] abbreviates: 5 µM, relative to untreated control.
[9] abbreviates: 10 µM, relative to untreated control.
The mark [10] stands for this setting: 25 µM, relative to untreated control.
[11] abbreviates: 35 µM, relative to untreated control.
Setting [12] is: 50 µM, relative to untreated control.

Molecules are shown by their SMILES. “And” between values parts separate entries of the source, which are not always exact repeats. Equal values may be shown once. Marks after values point to notes of the source that are not given here. Some results are limits rather than exact numbers.

As to `CC(=O)OC[C@H]1O[C@@H]([S-])[C@H](OC(C)=O)[C@@H](OC(C)=O)[C@@H]1OC(C)=O.CCP(CC)CC.[Au+]` [AF, auranofin, reference compound], the “NADPH consumption (rate/ΔOD340)” value in data set [1] is -0.0002869 and -0.0002715 and -0.0002247. Besides, the “Superoxide production, Pyrogallol red consumption monitored ΔA540” value in data set [2] (condition not given) is -0.0001303 and -1.372e-5; in data set [2] (setting [7]) it was -0.0001254 and 0.0001668. In addition, the “% viability” value is reported as 50.0296% in data set [3] (Conc. 0.5 µM), 15.8933% in data set [3] (Conc. 1 µM), 5.6364% in data set [3] (Conc. 2.5 µM) and 0.3335% in data set [3] (Conc. 5 µM). In addition, in data set [3], the “LD50 ex vivo S. mansoni 21 days” value came out at 0.62 ± 0.01 µM. In data set [4], the “TRFS-Green fluorescence in NTS” value was “significant decreases in fluorescence”.
What is called viability is a read-out of living cells in per cent, often relative to untreated cells. The low end stands for more harm to the cells, the high end for less harm to the cells. Take `Cc1oc(-c2ccc3c(c2)OCO3)nc1CN[C@@H]1C[C@@H]2C[C@H]([C@H]1C)C2(C)C` [Compound 1]: the “NADPH consumption (rate/ΔOD340)” value in data set [1] was -0.000815 and -0.0007737 and -0.0007308. Moreover, the “Superoxide production, Pyrogallol red consumption monitored ΔA540” value in data set [2] (condition not given) is -0.0003735 and -0.0003395 and -0.0002315. Moreover, in data set [2] (setting [7]), the “Superoxide production, Pyrogallol red consumption monitored ΔA540” value is -9.411e-5 and -9.234e-5 and -8.721e-5. The same compound registered a viability at 5 µM in data set [3] (Conc. 5 µM) of 69%. Moreover, in data set [3], the viability at 15 µM stood at 54.9%, the viability at 30 µM was 46.4% and the “LD50 ex vivo S. mansoni 21 days” value is on record as 26.3 ± 0.48 µM. Moreover, in data set [5], the “LD50 ex vivo S. japonicum adult” value is recorded as 19.6 ± 1.91 µM, the viability at 5 µM is 87.9%, the viability at 15 µM was 56.2% and the viability at 30 µM is 19.2%. Further, in data set [4], the “TRFS-Green fluorescence in NTS” value is reported as “significant decreases in fluorescence” and the “production of green fluorescent dye in TRFS-green assay” value was “abolished”. The same compound returned a viability at 24 h, 5 µM in data set [6] (Conc. 5 µM) of 94.7%. This compound had a viability at 24 h, 10 µM in data set [6] (Conc. 10 µM) of 94.6%. In data set [6] (Conc. 25 µM), this compound came in with a viability at 24 h, 25 µM of 94.3%. The same compound displayed a viability at 24 h, 35 µM in data set [6] (Conc. 35 µM) of 83.3%. In addition, in data set [6] (Conc. 50 µM), the viability at 24 h, 50 µM was found to be 72.5%.
In turn, `CCc1ccccc1-c1nc(CN[C@@H]2C[C@@H]3C[C@H]([C@H]2C)C3(C)C)c(C)o1` [Compound 2] gave a viability at 5 µM in data set [3] (Conc. 5 µM) of 57%. In addition, in data set [3], the viability at 15 µM was determined as 9.68%, the viability at 30 µM came to 0.112% and the “LD50 ex vivo S. mansoni 21 days” value is given as 7.2 ± 0.30 µM. Also, in data set [5], the “LD50 ex vivo S. japonicum adult” value is on record as 11.1 ± 1.35 µM, the viability at 5 µM amounted to 52.5%, the viability at 15 µM worked out at 30.6% and the viability at 30 µM stood at 3.64%. Moreover, in data set [4], the “TRFS-Green fluorescence in NTS” value was “significant decreases in fluorescence” and the “production of green fluorescent dye in TRFS-green assay” value is “abolished”. In data set [6] (Conc. 5 µM), this compound showed a viability at 24 h, 5 µM of 99.8%. The compound also had a viability at 24 h, 10 µM in data set [6] (Conc. 10 µM) of 98.9%. In addition, the viability at 24 h, 25 µM in data set [6] (Conc. 25 µM) was determined as 95.6%. For the same compound, in data set [6] (Conc. 35 µM), the viability at 24 h, 35 µM came out at 75.4%. This compound registered a viability at 24 h, 50 µM in data set [6] (Conc. 50 µM) of 53.1%.
In data set [3] (Conc. 5 µM), `Cc1oc(-c2ccccc2)nc1CN[C@@H]1C[C@@H]2C[C@H]([C@H]1C)C2(C)C` [Compound 3] registered a viability at 5 µM of 66%. Also, in data set [3], the viability at 15 µM was 43.1%, the viability at 30 µM is 32.1% and the “LD50 ex vivo S. mansoni 21 days” value is on record as 10.9 ± 0.39 µM. Moreover, the “LD50 ex vivo S. japonicum adult” value in data set [5] is 13.9 ± 1.45 µM.
As for `Cc1oc(C2CCCCC2)nc1CN[C@@H]1C[C@@H]2C[C@H]([C@H]1C)C2(C)C` [Compound 4], the “NADPH consumption (rate/ΔOD340)” value in data set [1] was -0.0007477 and -0.0007112 and -0.0007089. For the same compound, the “Superoxide production, Pyrogallol red consumption monitored ΔA540” value in data set [2] (condition not given) is -0.0003594 and -0.0003266 and -0.0002925. Also, in data set [2] (setting [7]), the “Superoxide production, Pyrogallol red consumption monitored ΔA540” value is -3.468e-5 and -5.202e-5. The viability at 5 µM in data set [3] (Conc. 5 µM) was found to be 65.7%. Besides, in data set [3], the viability at 15 µM stood at 45.3%, the viability at 30 µM stood at 27.7% and the “LD50 ex vivo S. mansoni 21 days” value was found to be 14.2 ± 2.13 µM. In data set [5], the “LD50 ex vivo S. japonicum adult” value was 27.1 ± 1.75 µM. Further, the “TRFS-Green fluorescence in NTS” value in data set [4] was “significant decreases in fluorescence”.
On to `Cc1oc(-c2ccc3ccccc3c2)nc1CNC1CCCCCC1` [Compound 5], for which the viability at 5 µM in data set [3] (Conc. 5 µM) turned out to be 65.4%. Further, in data set [3], the viability at 15 µM came out at 52.1%, the viability at 30 µM came to 36.8% and the “LD50 ex vivo S. mansoni 21 days” value was found to be 16.9 ± 2.80 µM.
In data set [6] (setting [8]), `CC1C(NCc2cn(C3OCC(O)C(O)C3O)c3ccccc23)CC2CC1C2(C)C` (stereo not drawn) [Compound 9] returned a viability at 24 h, 5 µM of 92.7%. This compound also registered a viability at 24 h, 10 µM in data set [6] (setting [9]) of 90.7%. The same compound yielded a viability at 24 h, 25 µM in data set [6] (setting [10]) of 89.9%. The same compound showed a viability at 24 h, 35 µM in data set [6] (setting [11]) of 89.6%. The same compound returned a viability at 24 h, 50 µM in data set [6] (setting [12]) of 83.5%.
For `C[C@@H]1[C@H]2C[C@@H](C[C@H]1NCc1nc3ccccc3n1C)C2(C)C` [Compound 12], the “TRFS-Green fluorescence in NTS” value in data set [4] was “negligible effects”.
Take `C[C@@H]1N=C(c2ccccc2Cl)c2cc([N+](=O)[O-])ccc2NC1=O` [MZM, meclonazepam, reference compound]: the “LD50 ex vivo S. mansoni 21 days” value in data set [3] is listed as >50^a µM. In data set [6] (setting [8]), the viability at 24 h, 5 µM is 99.8%. In addition, the viability at 24 h, 10 µM in data set [6] (setting [9]) came to 98.1%. Moreover, the viability at 24 h, 25 µM in data set [6] (setting [10]) is 92.9%. In data set [6] (setting [11]), this compound yielded a viability at 24 h, 35 µM of 90.8%. For the same compound, the viability at 24 h, 50 µM in data set [6] (setting [12]) is 87%.
Consider `O=C(C1CCCCC1)N1CC(=O)N2CCc3ccccc3C2C1` (stereo not drawn) [PZQ, praziquantel], for which the “LD50 ex vivo S. mansoni 21 days” value in data set [3] is on record as >50^a µM. The same compound registered a viability at 24 h, 5 µM in data set [6] (setting [8]) of 97.1%. The viability at 24 h, 10 µM in data set [6] (setting [9]) is 98.3%. The same compound gave a viability at 24 h, 25 µM in data set [6] (setting [10]) of 92.3%. In addition, in data set [6] (setting [11]), the viability at 24 h, 35 µM was determined as 89.1%. For the same compound, the viability at 24 h, 50 µM in data set [6] (setting [12]) came to 88.9%.

The record behind these values is publication PMC10287695, “Non-covalent inhibitors of thioredoxin glutathione reductase with schistosomicidal activity in vivo” (Nature Communications, 2023).
